In patent publication US11696895B2, “Fine particle coating (drug-containing hollow particle and method for manufacturing same)” (Sumitomo Pharma Co., Ltd., priority 2017, dated 2023):

Key:
[1] = Dissolution test (paddle method, revised 16th Japanese Pharmacopoeia), HPLC; assay type: physicochemical; conditions: 50% dissolution time after coating / before coating (uncoated nucleus)
Method: Dissolution tests were conducted using the tablets manufactured in Comparative Example 2 and Example 2. Water of 37° C./900 ML was used as the test solution for measurement at a number of rotations of 50 RPM based on the paddle method of a dissolution test method in the revised 16th Japanese Pharmacopoeia. The measurement times were 10, 15, 30, 45, 60, 90, 120, 360, 720, 1080, and 1440. The sampling solution was filtered and measured by HPLC to calculate the dissolution rate.
<HPLC Measurement Conditions> • Detector: ultraviolet visible spectrophotometer • Measurement wavelength: 285 NM • Column: WATERS ACQUITY UPLC C18 [2.1 MM Φ×30 MM] • Colum temperature: 40° C. • Amount of flow: 0.5 ML/MIN • Amount injected: […] • Sample cooler: 25° C. • Syringe cleansing solution: water/acetonitrile mixture=1/1 • Mobile phase: water/acetonitrile mixture=4/1
A dissolution test was conducted using the particles manufactured in Example 4 and particles manufactured in Comparative Example 1. The test conditions were the same as Test Example 1.
A dissolution test was conducted using the coated component of interest-containing hollow particles manufactured in Example 5. The test conditions were the same as Test Example 1. […] The dissolution time was extended by a factor of 2 or greater. Improvement in the ability to control release of macromolecules constituting nuclear particles was confirmed for all coated component of interest-containing hollow particles using water insoluble particles as coatable microparticles.
A dissolution test was conducted using the particles manufactured in Example 7-2 and tablets manufactured in Example 8-1 and Comparative Examples 8-1 and 8-2. The test conditions were the same as in Test Example 1.
A dissolution test was conducted using the particles manufactured in Example 11 and Comparative Example 11. The test conditions were the same as Test Example 1.
A dissolution test was conducted using the particles manufactured in Comparative Example 12B. The test conditions were the same as Test Example 1.

[2] = Particle size distribution (laser diffraction, volume based); assay type: physicochemical; conditions: Table 2-2 particle sizes
Method: As used herein, “mean particle size” refers to cumulative 50% point of particle size D50 in volume based measurement of powder particles. Such a mean particle size is measured based on volume with a laser diffraction particle size distribution analyzer (e.g., Powrex Corp: […] VIEWER, Shimadzu Corp: SALD-3000J, or […]: HELOS & RODOS).
The particle size distribution of components of interest, macromolecules, other additives, mixed powder of components of interest and other additives, resulting coated component of interest-containing hollow particles, and coatable microparticles was measured based on volume with a laser diffraction particle size distribution analyzer (e.g., Powrex Corp: […] VIEWER or […]: HELOS & RODOS).

| Ratio of 50% dissolution time with respect to nucleus (JP 1st) [1] | D10 [2] [µm] | D50 [2] [µm] | D90 [2] [µm] | Structure (SMILES) |
| --- | --- | --- | --- | --- |
| ≥ 63 |  |  |  | COc1cc(N)c(Cl)cc1C(=O)NC[C@H]1CN(CC2CCN(C(=O)CO)CC2)CCO1 [Compound D] |
|  | 0.73 | 1.99 | 5.16 | NS(=O)(=O)Cc1noc2ccccc12 [Compound A, 1,2-BENZISOXAZOLE-3-METHANESULFONAMIDE] |
| ≥ 21 |  |  |  | CC(=O)Nc1ccc(O)cc1 [Compound E, N-(4-HYDROXYPHENYL)ACETAMIDE] |

| Structure (SMILES) | Ratio of 50% dissolution time with respect to nucleus (JP 1st) [1] | D10 [2] [µm] | D50 [2] [µm] | D90 [2] [µm] |
| --- | --- | --- | --- | --- |
| Cn1c(=O)c2c(ncn2C)n(C)c1=O [Compound F, 1,3,7-TRIMETHYLPURINE-2,6-DIONE] | ≥ 235 |  |  |  |
